# Data published in US20120184590A1, “FORMULATIONS OF INDOLE-3-CARBINOL DERIVED ANTITUMOR AGENTS WITH INCREASED ORAL BIOAVAILABILITY” (UNIVERSITY OF KANSAS, priority 2009, published 2012).
# “And” between values parts separate entries of the source, which are not always exact repeats. Identical values can stand only once. Like-named read-outs stand apart in the source and are kept apart here. Marks after values point to notes of the source that are not given here.
# What was measured:
# [1] = Green C., unpublished results; cited from earlier work
# [2] = Oral bioavailability of PEG400:Labrasol formulation in rats; settings: rat, in vivo
# [3] = Pharmacokinetics of SR13668 in dogs after i.v. and oral gavage dosing; assay type: in vivo, beagle dogs; settings: for Fabs F/(1-ER): blood; for bioavailability: beagle (dogs), across all oral groups, dogs and monkeys; for Vd/F: read-out: VZ/F
# From the text: Four non-naïve male beagle dogs (approximately 3 years of age; Ridglan Farms Inc. Mt. Horeb, Wis.) and four non-naïve male cynomolgus monkeys [cynos (macaca fasicularis); approximately 7 to 8 years of age; Charles River Laboratories, Inc., Houston, Tex.] were used in this study. Prior to experimental initiation for the present study, the attending veterinarian certified that the animals were healthy and free from disease and parasites.
# For both species, each animal was part of each experimental group, with a 7-day interval between treatments to allow for washout of the dosing formulation and its effects. Dosing formulations of SR13668 were administered by oral gavage (intragastric) or intravenous (i.v.) injection as a single dose or once daily for seven consecutive days. Oral to doses were administered at a dosing volume of 5 mL/kg of body weight, while intravenous doses were administered at a dosing volume of 0.5 mL/kg of body weight. Dogs were dosed with 93.6 mg/m^2 SR13668 intravenously in DMSO:PEG300 15:85 (v/v) or orally in Solutol® vehicle (two groups, fed and after an overnight fast). Monkeys were dosed with 84.2 mg/m^2 SR13668 intravenously in DMSO:PEG300 15:85 (v/v) or orally (336.7 mg/m^2 SR13668 for the oral high dose group) in PEG400:Labrasol® 1:1 (v/v) or Solutol® vehicles. Vehicle control groups were used to assess the tolerability of the vehicle and for clinical pathology evaluations.
# Blood samples were collected from each animal at 10 time points (0, 0.25, 0.5, 1, 2, 4, 6, 8, 12 and 24 hours post-dose) during the first and last 24-hour segment of each dosing regimen. For single intravenous dose experiments, samples were collected during the 24-hour post-dose period only. Samples were transferred to Vacutainer tubes containing ethylenediaminetetraacetic acid (EDTA; Fisher Scientific, Pittsburgh, Pa.). The tubes were inverted several times to mix and then placed on ice until storage or centrifugation for plasma preparation. After centrifugation, the plasma was transferred into storage tubes (0.5 mL), which were placed on dry ice and then stored frozen (approximately −70° C.).
# Levels of SR13668 in plasma and blood were measured using a tandem mass to spectrometer (API 3000; Applied Biosystems/MDS Sciex, Foster City, Calif.) equipped with a high performance liquid chromatograph (Agilent 1200; Agilent Technologies, Wilmington, Del.). For SR13668 determination, a 100 μL blood or plasma aliquot was mixed with 1 mL of acetonitrile (ACN; Sigma-Aldrich, St. Louis, Mo.). After vortex-mixing for one minute, the sample was centrifuged at 4° C. and 7000 RPM for 10 minutes to remove precipitated proteins, and the supernatant was transferred to a clean tube and dried under nitrogen flow at room temperature (approximately 25° C.). After the evaporation was completed, the residue was reconstituted in 500 μL of ACN/water (v/v 70:30), and vortex-mixed and centrifuged again. An aliquot of the resulting supernatant was transferred to an autosampler tube for instrumental analysis.
# A freshly prepared SR13668 standard curve was analyzed along with samples on each day of analysis. The chromatographic column was a Luna 3μ C18(2) 110 Å 30×2.0 mm (Phenomenex, Torrance, Calif.). The column temperature was maintained at 25° C., and a flow rate of 0.30 mL/min was used. The mobile phase consisted of MPA: formic acid in water (0.05%, v/v) and MPB: formic acid in ACN (0.05%, v/v). The mobile phase gradient was as follows: after injection, initial conditions with MPA at 40% were held for 0.01 min, decreased to 5% and held constant for 3 min, returning to initial conditions for another 3 min of re-equilibration time. Retention time of SR13668 was approximately 2.4 min. Total run time was 6 min. A turbo ion spray interface was used as the ion source operating in negative ion mode. Acquisition was performed in multiple reaction monitoring mode using ions 429.15 (Q1) and 414.12 (Q3) Dalton. […]
# [4] = dogs, whole blood, 93.6 mg/m^2 (4.68 mg/kg) iv single dose, DMSO:PEG300 15:85 v/v, fed
# [5] = male, beagle, dog, plasma, iv, 4.68 mg/kg, dogs, plasma, 93.6 mg/m^2 (4.68 mg/kg) i.v. single dose, DMSO:PEG300 15:85 v/v, fed
# [6] = male, beagle, dog, plasma, po, 4.68 mg/kg, dogs, 93.6 mg/m^2 (4.68 mg/kg) oral gavage, Solutol, seventh daily dose, fasted
# [7] = male, beagle, dog, plasma, po, 4.68 mg/kg, dogs, 93.6 mg/m^2 (4.68 mg/kg) oral gavage, Solutol, seventh daily dose, fed
# [8] = male, beagle, dog, whole blood, iv, 4.68 mg/kg, dogs, whole blood, 93.6 mg/m^2 (4.68 mg/kg) iv single dose, DMSO:PEG300 15:85 v/v, fed
# [9] = male, beagle, dog, whole blood, po, 4.68 mg/kg, dogs, 93.6 mg/m^2 (4.68 mg/kg) oral gavage, Solutol, seventh daily dose, fasted
# [10] = male, beagle, dog, whole blood, po, 4.68 mg/kg, dogs, 93.6 mg/m^2 (4.68 mg/kg) oral gavage, Solutol, seventh daily dose, fed
smiles,measurement,setting,value
"CCOC(=O)c1ccc2[nH]c3c(OC)c4[nH]c5ccc(C(=O)OCC)cc5c4cc3c2c1 [SR13668, 2,10-dicarbethoxy-6-methoxy-5,7-dihydro-indolo-(2,3-b)carbazole]",metabolism in rat microsomes,[1],slow metabolism
same,bioavailability,[2],< 1%
same,CL,"[3]; dogs, blood clearance, 93.6 mg/m^2 (4.68 mg/kg) oral gavage, Solutol, fasted",30.0 mL/min/kg
same,CL,"[3]; dogs, blood clearance, 93.6 mg/m^2 (4.68 mg/kg) oral gavage, Solutol, fed",25.7 mL/min/kg
same,Fabs F/(1-ER),"[3]; dogs, 93.6 mg/m^2 (4.68 mg/kg) oral gavage, Solutol, fasted",16.5%
same,Fabs F/(1-ER),"[3]; dogs, 93.6 mg/m^2 (4.68 mg/kg) oral gavage, Solutol, fed",20.0%
same,F0-∞,"[3]; dogs, plasma, 93.6 mg/m^2 (4.68 mg/kg) i.v. single dose, DMSO:PEG300 15:85 v/v, fed",100%
same,F0-∞,"[3]; dogs, plasma, 93.6 mg/m^2 (4.68 mg/kg) oral gavage, Solutol, seventh daily dose, fasted",13.3 ± 4.0%
same,CL/F,[3]; [4],"0.244 ± 0.034^a,h L/hr/kg"
same,F0-∞,[3]; [4],100%
same,F0-∞,"[3]; dogs, whole blood, 93.6 mg/m^2 (4.68 mg/kg) oral gavage, Solutol, seventh daily dose, fasted",14.2 ± 4.5% and 14.2%
same,F0-∞,"[3]; dogs, whole blood, 93.6 mg/m^2 (4.68 mg/kg) oral gavage, Solutol, seventh daily dose, fed","17.2 ± 4.3^h,i % and 17.2%"
same,ER CLiv/Q,"[3]; dogs, iv blood clearance over hepatic blood flow 30.9 mL/min/kg",0.14
same,effect of fed or fasted condition on bioavailability,"[3]; dogs, oral gavage, Solutol",did not have an effect
same,bioavailability,"[3]; male, dog, plasma, read-out: plasma oral bioavailability, range",0.7 to 14.6%
same,bioavailability,"[3]; male, dog, whole blood, read-out: blood oral bioavailability, range",1.1 to 17.2%
same,AUC(0-inf),[3]; [5],8400 ± 1190 ng·h/mL
same,Cmax,[3]; [5],2360 ± 573 ng/mL
same,MRT,[3]; [5],6.3 ± 0.6 h
same,Tmax,[3]; [5],0.25 h
same,half-life,[3]; [5],5 ± 0.2 h
same,CL/F,"[3]; male, beagle, dog, plasma, po, 4.68 mg/kg, dogs, plasma, 93.6 mg/m^2 (4.68 mg/kg) oral gavage, Solutol, seventh daily dose, fasted, read-out: CL/F (converted)",76.3 mL/min/kg
same,Vd/F,"[3]; male, beagle, dog, plasma, po, 4.68 mg/kg, dogs, plasma, 93.6 mg/m^2 (4.68 mg/kg) oral gavage, Solutol, seventh daily dose, fasted",64 ± 24 L/kg
same,CL/F,"[3]; male, beagle, dog, plasma, po, 4.68 mg/kg, dogs, plasma, 93.6 mg/m^2 (4.68 mg/kg) oral gavage, Solutol, seventh daily dose, fed, read-out: CL/F (converted)",69.7 mL/min/kg
same,Vd/F,"[3]; male, beagle, dog, plasma, po, 4.68 mg/kg, dogs, plasma, 93.6 mg/m^2 (4.68 mg/kg) oral gavage, Solutol, seventh daily dose, fed",32.4 ± 9.6 L/kg
same,AUC(0-inf),[3]; [6],1100 ± 339 ng·h/mL
same,Cmax,[3]; [6],113 ± 58 ng/mL
same,MRT,[3]; [6],12.8 ± 4.2 h
same,Tmax,[3]; [6],2.8 ± 1.5 h
same,half-life,[3]; [6],9.7 ± 2.4 h
same,AUC(0-inf),[3]; [7],1240 ± 414 ng·h/mL
same,Cmax,[3]; [7],207 ± 48 ng/mL
same,MRT,[3]; [7],7.1 ± 1.1 h
same,Tmax,[3]; [7],1.8 ± 0.5 h
same,half-life,[3]; [7],5.6 ± 1.4 h
same,AUC(0-inf),[3]; [8],19500 ± 3160 ng·h/mL
same,Cmax,[3]; [8],5220 ± 742 ng/mL
same,MRT,[3]; [8],6.7 ± 0.6 h
same,Tmax,[3]; [8],0.25 h
same,half-life,[3]; [8],5 ± 0.1 h
same,CL/F,"[3]; male, beagle, dog, whole blood, po, 4.68 mg/kg, dogs, whole blood, 93.6 mg/m^2 (4.68 mg/kg) oral gavage, Solutol, seventh daily dose, fasted, read-out: CL/F (converted)",30 mL/min/kg
same,Vd/F,"[3]; male, beagle, dog, whole blood, po, 4.68 mg/kg, dogs, whole blood, 93.6 mg/m^2 (4.68 mg/kg) oral gavage, Solutol, seventh daily dose, fasted",18.6 ± 7.5 L/kg
same,CL/F,"[3]; male, beagle, dog, whole blood, po, 4.68 mg/kg, dogs, whole blood, 93.6 mg/m^2 (4.68 mg/kg) oral gavage, Solutol, seventh daily dose, fed, read-out: CL/F (converted)",25.7 mL/min/kg
same,Vd/F,"[3]; male, beagle, dog, whole blood, po, 4.68 mg/kg, dogs, whole blood, 93.6 mg/m^2 (4.68 mg/kg) oral gavage, Solutol, seventh daily dose, fed",12.8 ± 4.8 L/kg
same,AUC(0-inf),[3]; [9],2680 ± 577 ng·h/mL
same,Cmax,[3]; [9],277 ± 87 ng/mL
same,MRT,[3]; [9],10.9 ± 3.1 h
same,Tmax,[3]; [9],2.8 ± 1.5 h
same,half-life,[3]; [9],7 ± 1.8 h
same,AUC(0-inf),[3]; [10],3410 ± 1290 ng·h/mL
same,Cmax,[3]; [10],575 ± 152 ng/mL
same,MRT,[3]; [10],7.2 ± 0.9 h
same,Tmax,[3]; [10],1.8 ± 0.5 h
same,half-life,[3]; [10],5.9 ± 1.5 h
same,clearance,"[3]; male, beagle, dog, whole blood, dogs, blood clearance, 93.6 mg/m^2 (4.68 mg/kg) iv, DMSO:PEG300 15:85 v/v, fed",4.07 mL/min/kg
